This is an account of results in patent US10793542B2, “Hetroarylamine compounds for modulating the hedgehog pathway and preparing method and uses thereof” (DEVELOPMENT CENTER FOR BIOTECHNOLOGY, priority 2016, dated 2020).

Holding throughout (assay type): cell-based
The target in one test is T1, Smo D473H mutant (Homo sapiens, UniProt Q99835, D473H).
T1 construct: expressed in transfected cells; host or cells: C3H10T1/2 cells (ATCC CCL-226), transient transfection with pLPCX-SMO-D473H
The experiment in a line: Reporter assay of C3H10T1/2-Gli-Luc cells transfected with Smo D473H mutant, without SAG. To be noted: C3H10T1/2 cells transfected with pLPCX-SMO-D473H, no SAG, 48 hr; read-out: Inhibition of C3H10T1/2-Gli-Luc-Smo-D473H [IC50. The procedure:
(§1) A transient transfection system with a Smo wild type or a Smo D473H mutant was also used for compound screening. For the SMO inhibition experiments, cells were transfected with an additional 500 ng/well of wild-type or D473H-mutant type SMO construct (pLPCX-SMO or pLPCX-SMO-D473H). After 24 h, transfected cells were collected by trypsin treatment and re-plated in 96-well plates in an RPMI medium containing 0.5% FBS with a density of 1.5×10^4 cells/well. Compounds were dissolved in DMSO with serial dilutions and were then added to the assay plate. The assay plates were incubated at 37° C. for 48 hr.
(§2) Firefly luciferase and Renilla luciferase activity was determined using the Dual-Glo Luciferase reporter assay system (Promega) with a Victor3 plate reader (PerkinElmer Life Sciences). Firefly luciferase readings were normalized to Renilla luciferase to correct for transfection efficiency. Luminance reading for the C3H10T1/2-Gli-Luc assay was normalized based on DMSO control with SAG stimulation (100% pathway activity) and without SAG stimulation (0% pathway activity). IC50 values, defined as the inflection point of the logistic curve, were determined by nonlinear regression using the Prism 5 software (GraphPad).
(§3) The reporter assay of C3H10T1/2-Gli-Luc cells transfected with a wild-type, D473H mutant Smo mutant was carried out with the same protocol but without SAG stimulation. Luminance reading for the SMO inhibition experiments assay was normalized based on DMSO control (100% of the pathway activity) and a known Smo antagonist (ALLO-2 at 10 μM, 0% of the pathway activity).
In general terms: In a reporter assay the amount or activity of a reporter protein is the signal.

Test [1] has as its system hedgehog pathway (pGL3-7xGli-Luciferase reporter in C3H10T1/2 cells). Briefly: Transient transfection of C3H10T1/2 and Gli-Luc reporter assay with SAG stimulation. As to conditions: Mus musculus, C3H 10T1/2, SAG 20 nM, 48 hr, read-out: Inhibition of Gli-Luc expression [IC50. The procedure: A cell-based screen for inhibitors of the hedgehog pathway was performed using a transient transfection system in C3H10T1/2 cells with pGL3-7xGli-Luciferase reporter plasmids C3H10T1/2 cells (ATCC, cat.#CCL-226) were seeded into 6-well plates at 8×10^4 cells/well in a BME medium containing 10% heat-inactivated FBS. Cells were transfected the next morning with 500 ng/well pGL3-7xGli-Luciferase reporter plasmids and 100 ng/well pRL-TK Renilla luciferase reporter plasmids (Promega)using GeneJuice transfection reagent (Novagene). After 24 h, transfected cells were collected by trypsin treatment and re-plated in 96-well plates in an RPMI medium containing 0.5% FBS with a density of 1.5×10^4 cells/well. Compounds were dissolved in DMSO with serial dilutions and were then added to the assay plate. SAG (Hh-Ag 1.3) (Santa Cruz) was added to the assay plated for a final concentration 20 nM. The assay plates were incubated at 37° C. for 48 hr.
as §2

The target in a further test is T2, Smo wild type (Homo sapiens, UniProt Q99835).
T2 construct: expressed in transfected cells; host or cells: C3H10T1/2 cells (ATCC CCL-226), transient transfection with pLPCX-SMO
T2 sequence (Q99835 28-787): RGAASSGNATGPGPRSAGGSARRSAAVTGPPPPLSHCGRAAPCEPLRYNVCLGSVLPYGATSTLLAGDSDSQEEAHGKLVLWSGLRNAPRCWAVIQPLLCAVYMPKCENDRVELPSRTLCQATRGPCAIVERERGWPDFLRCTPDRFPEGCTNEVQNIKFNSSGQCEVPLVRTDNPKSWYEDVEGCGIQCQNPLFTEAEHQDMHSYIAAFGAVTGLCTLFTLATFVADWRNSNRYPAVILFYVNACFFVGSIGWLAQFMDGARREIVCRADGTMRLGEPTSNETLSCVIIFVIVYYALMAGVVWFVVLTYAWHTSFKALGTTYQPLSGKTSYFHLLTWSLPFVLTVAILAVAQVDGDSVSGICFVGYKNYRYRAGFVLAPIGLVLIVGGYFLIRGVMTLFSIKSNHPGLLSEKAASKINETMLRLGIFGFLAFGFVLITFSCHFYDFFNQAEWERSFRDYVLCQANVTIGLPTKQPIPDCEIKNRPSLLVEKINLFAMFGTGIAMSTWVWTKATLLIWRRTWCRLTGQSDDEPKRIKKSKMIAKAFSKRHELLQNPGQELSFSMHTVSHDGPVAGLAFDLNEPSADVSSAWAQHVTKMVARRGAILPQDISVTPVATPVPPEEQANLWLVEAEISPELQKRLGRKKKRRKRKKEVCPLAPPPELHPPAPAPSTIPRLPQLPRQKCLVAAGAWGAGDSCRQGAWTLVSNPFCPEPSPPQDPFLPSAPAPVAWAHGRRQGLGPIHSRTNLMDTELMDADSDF
Briefly: Reporter assay of C3H10T1/2-Gli-Luc cells transfected with wild-type Smo, without SAG. As to conditions: C3H10T1/2 cells transfected with pLPCX-SMO, no SAG, 48 hr; read-out: Inhibition of C3H10T1/2-Gli-Luc-Smo-WT [IC50. The procedure:
as §1, §2, §3

T1 sequence (Q99835 28-787 D473H): as the sequence (Q99835 28-787) above, with D446H counted along it

With `CSc1cnc(Nc2ccc(C(=O)Nc3cc(CN4CCOCC4)ccc3F)cc2F)nc1-c1ccc(OC(F)(F)F)cc1` [Compound 55, 3-Fluoro-N-(2-fluoro-5-morpholin-4-ylmethyl-phenyl)-4-[5-methylsulfanyl-4-(4-trifluoromethoxy-phenyl)-pyrimidin-2-ylamino]-benzamide], the IC50 (at Smo D473H mutant; in test [1]; on Smo wild type) was under 100 nM in each case.

Take `CSc1cnc(Nc2ccc(C(=O)Nc3c(F)cccc3F)cc2)nc1-c1cccnc1` [Compound 10, N-(2,6-Difluoro-phenyl)-4-(5-methylsulfanyl-4-pyridin-3-yl-pyrimidin-2-ylamino)-benzamide]: the IC50 (at Smo D473H mutant; in test [1]; at Smo wild type) was 100 to 1000 nM throughout.

Regarding `COc1cnc(Nc2ccc(C(=O)Nc3cc(CN4CCN(C)CC4)ccc3C)cc2F)nc1-c1ccc(OC(F)(F)F)cc1` [Compound 62, 3-Fluoro-4-[5-methoxy-4-(4-trifluoromethoxy-phenyl)-pyrimidin-2-ylamino]-N-[2-methyl-5-(4-methyl-piperazin-1-ylmethyl)-phenyl]-benzamide], the values for the IC50 (on Smo D473H mutant; in test [1]; on Smo wild type) were 100 to 1000 nM, under 100 nM and under 100 nM, respectively.

Regarding `CSc1cnc(Nc2ccc(C(=O)Nc3c(C)cccc3C)cc2)nc1-c1ccc(OC(F)(F)F)cc1` [Compound 1, N-(2,6-Dimethyl-phenyl)-4-[5-methylsulfanyl-4-(4-trifluoromethoxy-phenyl) -pyrimidin-2-ylamino]-benzamide], the results for the IC50 (at Smo D473H mutant; in test [1]; at Smo wild type) were over 1000 nM, 100 to 1000 nM and 100 to 1000 nM, respectively.

With `CSc1cnc(Nc2ccc(C(=O)Nc3c(C)cccc3C)cc2)nc1-c1ccc(F)cc1` [Compound 29, N-(2,6-Dimethyl-phenyl)-4-[4-(4-fluoro-phenyl)-5-methylsulfanyl-pyrimidin-2-ylamino]-benzamide], the IC50 (on Smo D473H mutant; in test [1]; at Smo wild type) was 100 to 1000 nM each time.

For the compound `CSc1cnc(Nc2ccc(C(=O)Nc3cc(CN4CCNCC4)ccc3C)cc2F)nc1-c1ccc(F)cc1` [Compound 78, 3-Fluoro-4-[4-(4-fluoro-phenyl)-5-methylsulfanyl-pyrimidin-2-ylamino]-N-(2-methyl-5-piperazin-1-ylmethyl-phenyl)-benzamide], the IC50 (at Smo D473H mutant; in test [1]; on Smo wild type) was 100 to 1000 nM in each case.

`CSc1cnc(Nc2ccc(C(=O)Nc3cccc(CN4CCOCC4)c3)cc2)nc1-c1ccc(C(F)(F)F)nc1` [Compound 69, 4-[5-Methylsulfanyl-4-(6-trifluoromethyl-pyridin-3-yl)-pyrimidin-2-ylamino]-N-(3-morpholin-4-ylmethyl-phenyl)-benzamide]: the IC50 at Smo D473H mutant was 100 to 1000 nM; in test [1], under 100 nM; at Smo wild type it was under 100 nM.

Take `CCOc1cnc(Nc2ccc(C(=O)Nc3cc(CN4CCN(C)CC4)ccc3C)cc2)nc1-c1ccc(OC(F)(F)F)cc1` [Compound 73, 4-[5-Ethoxy-4-(4-trifluoromethoxy-phenyl)-pyrimidin-2-ylamino]-N-[2-methyl-5-(4-methyl-piperazin-1-ylmethyl)-phenyl]-benzamide]: the IC50 at Smo D473H mutant was 100 to 1000 nM; in test [1], under 100 nM; on Smo wild type it was under 100 nM.

For `CSc1cnc(Nc2ccc(C(=O)Nc3cc(CN4CCOCC4)ccc3C)cc2F)nc1-c1cnn(C)c1` [Compound 45, 3-Fluoro-N-(2-methyl-5-morpholin-4-ylmethyl-phenyl)-4-[4-(1-methyl-1H-pyrazol-4-yl)-5-methylsulfanyl-pyrimidin-2-ylamino]-benzamide], the IC50 (on Smo D473H mutant; in test [1]; on Smo wild type) was under 100 nM each time.

With `CSc1cnc(Nc2ccc(C(=O)Nc3cc(CN(C)C)ccc3C)cc2)nc1-c1ccc(C#N)cc1` [Compound 34, 4-[4-(4-Cyano-phenyl)-5-methylsulfanyl-pyrimidin-2-ylamino]-N-(5-dimethylaminomethyl-2-methyl-phenyl)-benzamide], the values for the IC50 (at Smo D473H mutant; in test [1]; on Smo wild type) were 100 to 1000 nM, under 100 nM and 100 to 1000 nM, respectively.

Consider `CSc1cnc(Nc2ccc(C(=O)Nc3ccccc3C)cc2F)nc1-c1cccnc1F` [Compound 16, 3-Fluoro-4-[4-(2-fluoro-pyridin-3-yl)-5-methylsulfanyl-pyrimidin-2-ylamino]-N-o-tolyl-benzamide], for which the IC50 (on Smo D473H mutant; in test [1]; at Smo wild type) was 100 to 1000 nM throughout.

As for `CSc1cnc(Nc2ccc(C(=O)Nc3cc(CN4CCOCC4)ccc3C)cc2F)nc1-c1ccc(F)cc1` [Compound 41, 3-Fluoro-4-[4-(4-fluoro-phenyl)-5-methylsulfanyl-pyrimidin-2-ylamino]-N-(2-methyl-5-morpholin-4-ylmethyl-phenyl)-benzamide], the results for the IC50 (on Smo D473H mutant; in test [1]; at Smo wild type) were 100 to 1000 nM, under 100 nM and under 100 nM, respectively.

Regarding `CCN(CC)Cc1ccc(C)c(NC(=O)c2ccc(Nc3ncc(SC)c(-c4ccc(OC(F)(F)F)cc4)n3)nc2)c1` [Compound 66, N-(5-Diethylaminomethyl-2-methyl-phenyl)-6-[5-methylsulfanyl-4-(4-trifluoromethoxy-phenyl)-pyrimidin-2-ylamino]-nicotinamide], the IC50 on Smo D473H mutant is 100 to 1000 nM; in test [1], under 100 nM; at Smo wild type, under 100 nM.

For the compound `CSc1cnc(Nc2ccc(C(=O)Nc3ccc(C#N)cc3)cc2)nc1-c1cccnc1F` [Compound 18, N-(4-Cyano-phenyl)-4-[4-(2-fluoro-pyridin-3-yl)-5-methylsulfanyl-pyrimidin-2-ylamino]-benzamide], the IC50 (on Smo D473H mutant; in test [1]; on Smo wild type) was 100 to 1000 nM throughout.

Consider `CSc1cnc(Nc2ccc(C(=O)Nc3cc(CN(C)C)ccc3C)cc2)nc1-c1ccc(F)cc1` [Compound 31, N-(5-Dimethylaminomethyl-2-methyl-phenyl)-4-[4-(4-fluoro-phenyl)-5-methylsulfanyl-pyrimidin-2-ylamino]-benzamide], for which the values for the IC50 (at Smo D473H mutant; in test [1]; on Smo wild type) were 100 to 1000 nM, under 100 nM and under 100 nM, respectively.

As for `COc1cccc(C)c1NC(=O)c1ccc(Nc2ncc(SC)c(-c3ccc(F)nc3)n2)c(F)c1` [Compound 17, 3-Fluoro-4-[4-(6-fluoro-pyridin-3-yl)-5-methylsulfanyl-pyrimidin-2-ylamino]-N-(2-methoxy-6-methyl-phenyl)-benzamide], the IC50 (on Smo D473H mutant; in test [1]; at Smo wild type) was 100 to 1000 nM each time.

`COc1cccc(C)c1NC(=O)c1ccc(Nc2ncc(SC)c(-c3cccnc3F)n2)cc1` [Compound 14, 4-[4-(2-Fluoro-pyridin-3-yl)-5-methylsulfanyl-pyrimidin-2-ylamino]-N-(2-methoxy-6-methyl-phenyl)-benzamide]: the IC50 on Smo D473H mutant is 100 to 1000 nM; in test [1], under 100 nM; on Smo wild type, 100 to 1000 nM.

Take `CCN(CC)Cc1ccc(C)c(NC(=O)c2ccc(Nc3ncc(OC)c(-c4ccc(C#N)cc4)n3)cc2)c1` [Compound 50, 4-[4-(4-Cyano-phenyl)-5-methoxy-pyrimidin-2-ylamino]-N-(5-diethylaminomethyl-2-methyl-phenyl)-benzamide]: the IC50 was 100 to 1000 nM at Smo D473H mutant, under 100 nM in test [1] and under 100 nM on Smo wild type.

Consider `COc1cnc(Nc2ccc(C(=O)Nc3cc(CN4CCNCC4)ccc3C)cc2)nc1-c1ccc(F)cc1` [Compound 79, 4-[4-(4-Fluoro-phenyl)-5-methoxy-pyrimidin-2-ylamino]-N-(2-methyl-5-piperazin-1-ylmethyl-phenyl)-benzamide], for which the figures for the IC50 (on Smo D473H mutant; in test [1]; on Smo wild type) were 100 to 1000 nM, under 100 nM and 100 to 1000 nM, respectively.
